Read-outs that look alike come from different tables or passages of the source. Starred links: 1 amine or outer side, 2 acyl side, 3 side chain; linkers in the order of their positions; H or OH if unused. Non-standard residues stand in square brackets, D forms with d. Residues, ends and D or L forms follow the SMILES beside them. Groups on a side chain read outwards from the residue. *: point of attachment. Ethylenediamine = C(CN[*:2])N[*:1]; Hyp = O=C(O)[C@@H]1C[C@@H](O)CN1; Phg = N[C@H](C(=O)O)c1ccccc1; CO = O=C([*:1])[*:2]; Bn = c1ccc(C*)cc1
Legend:
AtT20 cells [1] = test: Nuclei staining (Hoechst 33342 dye), screen of kinase inhibitor library; assay type: cell-based, murine; details: Mus musculus; for inhibition at 1 µM / inhibition at 10 µM: read-out: Nuclei Inhibition (%)
Description: This plate was incubated in a Cytomat 6000 sealed with gas permeable polyurethane film (USA Scientific) and imaged on ImageXpress^XL (Molecular Devices). All these instruments are integrated on a Beckman Coulter SAMI automation platform which tracks timing to ensure accuracy and consistency of all steps.

AtT20 cells [2] = test: ACTH AlphaLISA assay, screen of kinase inhibitor library; assay type: cell-based, murine; details: Mus musculus, read-out: ACTH Inhibition (%)
Description: The latter mouse antibody is then trapped by an anti-mouse IgG (Fc specific) conjugated to acceptor beads, bringing the donor and acceptor beads into close proximity. […] Conversely if the cell SN ACTH is reduced following treatment with an ACTH inhibitor, the Alpha signal is restored.
One column (#1) with vehicle treatment only, and two cell-free columns (#23 & 24) were included as AlphaLISA signal negative and positive controls respectively to monitor assay performance.
Thereafter, 2 μL of cell culture supernatant was transferred from the black culture plate into a white low volume assay plate (Corning) using Vprep (Agilent) equipped with Velocity 11 Biocel 1800 (Agilent). 1 μL of biotinylated ACTH peptide solution (AnaSpec) and 1 μL of anti-ACTH antibody solution (EMD) is added sequentially into the low volume assay plate using AquaMax DW4 (Molecular Devices) Following a 1 h incubation, 1 μL donor and acceptor beads (PerkinElmer) were added to the assay plate using ELx405 (BioTek). Optical seals (Sigma) are used to minimize assay evaporation during the subsequent 2 h incubation. The assay plate is then transferred by a Thermo Spinnaker robotic arm to Envision (PerkinElmer) for AlphaLISA signal detection.

[3] = system: AtT20 cells stably transfected with POMC promoter driven luciferase; test: POMC promoter-driven luciferase assay (POMC-Luc); assay type: cell-based, murine; details: 1 day
Description: Using a POMC promoter-driven luciferase assay, the direct actions of the aforementioned compounds on POMC transcription was examined.

AtT20 cells [4] = test: ACTH secretion in AtT20 cells (ELISA); assay type: cell-based, murine; details: for EC50: Mus musculus, read-out: EC50 for ACTH secretion inhibition
Description: The EC50 for ACTH secretion inhibition were calculated using a sigmoidal dose-response curve (GraphPad Prism).
FIG. 6F depicts the results of a study wherein AtT20 cells were treated with panobinostat and burparlisib simultaneously to detect the effects on ACTH secretion.

AtT20 cells [5] = test: AtT20 cell proliferation IC50 (CellTiter-Glo); assay type: cell-based, murine; details: read-out: IC50 for proliferation inhibition
Description: The IC50 values were calculated using sigmoidal dose-response curve (GraphPad Prism).

AtT20 cells [6] = test: Relative proliferation rate, panobinostat and buparlisib alone and combined; assay type: cell-based, murine; details: Veh 1.0±0.06
Description: FIG. 6G depicts the results of a study wherein AtT20 cells were treated with panobinostat and burparlisib simultaneously to detect the effects on cell proliferation.

[7] = background statement; cited from earlier work
[8] = system: human corticotroph tumor primary cultures; test: ACTH secretion in human corticotroph tumor primary culture (ELISA); assay type: cell-based; details: Vehicle 3.7±0.2
[9] = system: AtT20 cells inoculated into athymic nude mice; test: Xenograft model of Cushing disease; assay type: in vivo, athymic nude mice (Nu/J strain); details: 300 mg/kg oral gavage daily, 18 days
Description: Animal bodyweight was recorded daily. […] Tumor size was recorded daily. […] Tumor size was measured post euthanizer. […] Tumor weight was measured post euthanizer. […] Blood samples were collected by cardiac puncture and plasma ACTH levels were measured by ELISA. […] Blood samples were collected by cardiac puncture and plasma corticosterone levels were measured by ELISA. […] AtT20 cells (2×10^5/animal) were injected into the hind flank region of athymic nude mice (Nu/J strain from Jackson lab). […] During 18-days of CUDC-907-treatment, animal bodyweight (FIG. 4A) and tumor sizes (FIG. 4B) were measured daily. Upon experiment completion, the animals were euthanized and tumors were harvested, and weighed. Blood samples were collected by cardiac puncture.

[10] = system: human corticotroph tumor primary cultures; test: Proliferation of human corticotroph tumor primary cultures (CellTiter-Glo); assay type: cell-based; details: two human primary corticotroph tumor cultures, 3 days, read-out: IC50 anti-proliferative effect
AtT20 cells [11] = test: c-Myc and cell cycle inhibitor mRNA by real time PCR; assay type: cell-based; details: murine corticotroph tumor cells, 5 nM, 24 h
AtT20 cells [12] = test: POMC mRNA expression in AtT20 cells by real time PCR; assay type: cell-based, murine; details: 20 nM to 1.25 nM, 24 h, RT-PCR
Description: The POMC mRNA expression […] values were determined by real time PCR.
FIG. 6I depicts the results of a study wherein AtT20 cells were treated with panobinostat and burparlisib simultaneously to detect the effects on POMC mRNA expression.

AtT20 cells [13] = test: Expression of POMC regulators (Nurr1, Nur77, LXRα, GR) after treatment; assay type: cell-based, murine
Description: Accordingly, the expressions of several nuclear receptors, known as POMC positive and negative regulators, including Nurr1 (NR4A2), Nur77 (NR4A1), LXRα (NR1H3), and GR (NR3C1), were examined.

[14] = system: murine corticotroph tumor Caspase-3/7; test: Caspase-Glo3/7 assay; assay type: cell-based; details: 24 hours
Nurr1 = Nurr1 interaction with HDACs and Nurr1 phosphorylation by immunoprecipitation; assay type: cell-based
Description: FIG. 7F depicts the interactions between Nurr1, HDACs, and Nurr1 phosphorylation, as detected by immunoprecipitation.

AtT20 cells [15] = test: Histone acetylation (H3K9) and AKT pathway activation in AtT20 cells; assay type: cell-based, murine; details: 3 days
[16] = 72 h, 1 μM, AtT20 cells, 3 days
[17] = 72 h, 10 μM, AtT20 cells, 3 days
[18] = 72 h, 100 nM, AtT20 cells, 3 days
[19] = Mus musculus, AtT20, 72 h, 3 days
[20] = Mus musculus, AtT20, 72 h, 3 day-treatment

CC[C@@H]1C(=O)N(C)c2cnc(Nc3ccc(C(=O)NC4CCN(C)CC4)cc3OC)nc2N1C1CCCC1 [BI 2536]
inhibition at 1 µM (AtT20 cells [1]; AtT20, 72 h): 92.3%
inhibition at 10 µM (AtT20 cells [1]; AtT20, 72 h): 94%
inhibition at 0.1 µM (AtT20 cells [2]; AtT20, 72 h): 54.9%
inhibition at 1 µM (AtT20 cells [2]; AtT20, 72 h): 82%
inhibition at 10 µM (AtT20 cells [2]; AtT20, 72 h): 77.7%

COc1ccc(-c2ccc3ncc4c(c3c2)n(-c2ccc(N3CCNCC3)c(C(F)(F)F)c2)c(=O)n4C)cn1 [BGT226 (NVP-BGT226)]
inhibition at 0.1 µM (AtT20 cells [1]; 72 h, AtT20 cells, 3 days): 94.3%
inhibition at 1 µM (AtT20 cells [1]; [16]): 99%
inhibition at 10 µM (AtT20 cells [1]; [17]): 95.4%
inhibition at 0.1 µM (AtT20 cells [2]; [18]): 57.5%
inhibition at 1 µM (AtT20 cells [2]; [16]): 86.3%
inhibition at 10 µM (AtT20 cells [2]; [17]): 88.2%

Cc1nc(Nc2n[nH]c3c2CN(C(=O)N[C@H](CN(C)C)c2ccccc2)C3(C)C)c2sccc2n1 [PF-3758309]
inhibition at 0.1 µM (AtT20 cells [1]; 72 h, AtT20 cells, 3 days): 91.5%
inhibition at 1 µM (AtT20 cells [1]; [16]): 95.6%
inhibition at 10 µM (AtT20 cells [1]; [17]): 95.2%
inhibition at 0.1 µM (AtT20 cells [2]; [18]): 70.4%
inhibition at 1 µM (AtT20 cells [2]; [16]): 70.2%
inhibition at 10 µM (AtT20 cells [2]; [17]): 77.5%

CCc1cnn2c(NCc3ccc[n+]([O-])c3)cc(N3CCCC[C@H]3CCO)nc12 [Dinaciclib (SCH727965)]
inhibition at 0.1 µM (AtT20 cells [1]; 72 h, AtT20 cells, 3 days): 92%
inhibition at 1 µM (AtT20 cells [1]; [16]): 98.3%
inhibition at 10 µM (AtT20 cells [1]; [17]): 98%
inhibition at 0.1 µM (AtT20 cells [2]; [18]): 58.1%
inhibition at 1 µM (AtT20 cells [2]; [16]): 77.3%
inhibition at 10 µM (AtT20 cells [2]; [17]): 69.2%

Nc1cc(C(F)(F)F)c(-c2cc(N3CCOCC3)nc(N3CCOCC3)n2)cn1 [buparlisib]
effect on POMC transcription [3]: increased POMC transcription at higher doses
effect on ACTH secretion (AtT20 cells [4]; buparlisib alone): did not inhibit ACTH secretion
IC50 (AtT20 cells [5]; [19]): 500 nM
Relative Proliferation Rate (AtT20 cells [6]; buparlisib 62.5 nM alone): 1.0±0.06

NCCCC[C@@H]1NC(=O)[C@@H](Cc2c[nH]c3ccccc23)NC(=O)[C@H](c2ccccc2)NC(=O)[C@@H]2C[C@@H](OC(=O)NCCN)CN2C(=O)[C@H](Cc2ccccc2)NC(=O)[C@H](Cc2ccc(OCc3ccccc3)cc2)NC1=O [pasireotide] (cyclo([Hyp]([CO-Ethylenediamine])[Phg][dW]KY(Bn)F))
patients in whom the drug causes diabetes [7]: approximately 50%

Cc1[nH]c2ccccc2c1CCNCc1ccc(/C=C/C(=O)NO)cc1 [panobinostat]
EC50 (AtT20 cells [4]): 4 nM
ACTH secretion (AtT20 cells [4]; panobinostat 5 nM alone, Veh 39.6±2): 28.7 ± 0.1 ng/mL
ACTH secretion (AtT20 cells [4]; panobinostat 10 nM alone, Veh 39.6±2): 13.6 ± 1 ng/mL
inhibition of ACTH secretion (AtT20 cells [4]; panobinostat 5 and 10 nM alone): up to 66%
IC50 (AtT20 cells [5]; [20]): 20 nM
Relative Proliferation Rate (AtT20 cells [6]; panobinostat 5 nM alone): 1.0±0.01
Relative Proliferation Rate (AtT20 cells [6]; panobinostat 10 nM alone): 0.8±0.005

CS(=O)(=O)N1CCN(Cc2cc3nc(-c4cccc5[nH]ncc45)nc(N4CCOCC4)c3s2)CC1 [pictilisib]
effect on POMC transcription [3]: increased POMC transcription at higher doses
IC50 (AtT20 cells [5]; [19]): 800 nM

COc1ccc(-c2nc(N3CCOCC3)c3sc(CN(C)c4ncc(C(=O)NO)cn4)cc3n2)cn1 [CUDC-907]
ACTH secretion [8]: 1.9 ± 0.001 ng/mL
reduction of plasma ACTH level ([9]; vs controls): 77%
reduction of plasma corticosterone level ([9]; vs controls): 85%
reduction in tumor size ([9]; vs vehicle): ~35%
reduction in tumor weight ([9]; vs vehicle): 44%
tumor weight ([9]; Control 0.098±0.02): 0.04±0.006 gram
tumor volume ([9]; Control 0.17±0.05): 0.065±0.02 cm^3
Plasma corticosterone ([9]; Control 180±87): 27 ± 4.66 ng/mL
Plasma ACTH ([9]; Control 206.1±27.2): 47.4 ± 7.3 pg/mL
IC50 ([10]; Homo sapiens, 72 h): 3 nM
IC50 [10]: 5 nM
inhibition at 0.1 µM (AtT20 cells [1]; 72 h, AtT20 cells, 3 days): 90.1%
inhibition at 1 µM (AtT20 cells [1]; [16]): 99.2%
inhibition at 10 µM (AtT20 cells [1]; [17]): 99.3%
c-Myc mRNA expression (AtT20 cells [11]): increased
effect on POMC mRNA expression (AtT20 cells [12]): potent reduction in POMC mRNA expression
inhibition at 0.1 µM (AtT20 cells [2]; [18]): 84.7%
inhibition at 1 µM (AtT20 cells [2]; [16]): 80.1%
inhibition at 10 µM (AtT20 cells [2]; [17]): 80%
Nurr1 expression (AtT20 cells [13]; 1.25 nM, 24 h): reduction in Nurr1 expression
LXRα expression (AtT20 cells [13]; 5 and 10 nM, 24 h): reductions
Nur77 expression (AtT20 cells [13]; 5 and 10 nM, 24 h): reductions
Nurr1 protein expression (AtT20 cells [13]; 6 h-treatment): dramatic inhibition
GR expression (AtT20 cells [13]; 24 h): minor effects
Nurr1 mRNA expression (AtT20 cells [13]; real time PCR): inhibition of Nurr1 mRNA expression
EC50 ([3]; Mus musculus, 24 h, read-out: EC50 for POMC transcription inhibition): 0.5 nM
reduction of ACTH secretion (AtT20 cells [4]; 1.25 nM): 59%
ACTH secretion (AtT20 cells [4]; 1.25 nM, 24 h, Vehicle 30±19): 12 ± 2.4 ng/mL
ACTH secretion (AtT20 cells [4]; 2.5 nM, 24 h, Vehicle 30±19): 12 ± 5.7 ng/mL
EC50 (AtT20 cells [4]): 1 nM
ACTH secretion (AtT20 cells [4]; concentration not given, 24 h, Vehicle 30±19): 15 ± 2.2 ng/mL
IC50 (AtT20 cells [5]; 3 day-treatment): 5.1 nM
IC50 (AtT20 cells [5]; [20]): 5 nM
activity of caspase-3 and -7 [14]: increasing the activity
Nurr1 interaction with HDAC-1, 2, 3, but not HDAC10 (Nurr1): unaffected
Nurr1 serine/threonine phosphorylation levels (Nurr1): dramatically inhibited
AKT activation and downstream target 4E-BPI (AtT20 cells [15]): blocked
histone acetylation Ac-H3-K9 (AtT20 cells [15]): elevated histone acetylation
